# Results: a melting point compilation (Tetko et al.; mined from patent text by program, amines drawn as free bases though some values may be those of a salt)
row,Compound,melting point [°C]
1,CSC1=NC(=O)C(=C(C)c2cc(C(C)(C)C)c(O)c(C(C)(C)C)c2)S1,206 to 209
2,CCCc1nc2ccccc2n1Cc1ccc(-c2ccccc2-c2nnn[nH]2)nc1,240 to 241
3,O=C1N(c2ccc(C(F)(F)F)cc2)CN2C(c3ccc(Cl)cc3)C(c3ccccc3)CN12 (centres undefined),184 to 187
4,Cc1cc(C(O)(C(F)(F)F)C(F)(F)F)cc(C)c1OCCNCc1ccccc1,117 to 120
5,N#Cc1cc(C(=O)NNC(=O)c2occc2-c2ccncc2)ccc1O,280
6,CCOC(=O)C(=CN[C@@H](C)CO)C(=O)c1c(F)c(F)c(Br)c(F)c1F,127 to 134
7,CCS(CCO)=NS(=O)(=O)c1ccccc1 (centres undefined),75 to 76.5
8,COC(=O)c1cncc(NC(=O)C(C)CS)c1 (centres undefined),96 to 97
9,COc1cc(C=C2SC(=S)N(c3ccc(O)cc3)C2=O)ccc1OC1OC(CO)C(O)C(O)C1NC(C)=O (centres undefined),234 to 236
10,CCCC1=NN(c2ccc(C#N)cc2)C(=O)C1=CNc1ccccc1CC,197
11,CCCCC1c2sccc2CCN1CCCOc1ccc([N+](=O)[O-])cc1 (centres undefined),72 to 75
12,Cc1cccc(NC(=O)NC2N=C(c3ccccc3F)c3ccccc3N(Cc3nccc4ccccc34)C2=O)c1 (racemic),145 to 147
13,COc1ccc(-c2cnc(NC(=O)Cc3ccccc3)c(Cc3ccccc3)n2)cc1,198 to 202
14,COC=C(C#N)C(=O)c1cc(F)c(Cl)cc1Cl,159
15,CCCCCCCCCCC(C)(C)NC(=O)Nc1cc(OC)cc(C(C)(C)C)c1O,99 to 102
16,CC(C)(C)OC(=O)N[C@@H](Cc1ccc(-c2ccccc2)cc1)c1nnnn1CCC#N,184 to 185
17,O=C(O)c1cc(-c2ccc(Cl)cc2)n(-c2ccc(Cl)cc2Cl)n1,185
18,CC(Cl)(Cl)C(NC(=O)c1cc(F)cc(F)c1)NC(=NC#N)Nc1cccnc1 (centres undefined),191 to 193
19,CC(C)OC(=O)Cc1nc(-c2ccc(Cl)cc2)oc1-c1ccco1,96 to 97
20,Cc1cc(C(=O)O)ccc1-c1cnc2[nH]c(=O)n(CC3CCCCC3)c2n1,244 to 247
21,OC1(c2ccc(C(F)(F)F)cc2)CCNCC1,130 to 132
22,COc1cc(C)ccc1S(=O)(=O)NC(=O)C(c1ccc2c(c1)OCO2)c1cn(C)c2cc(C(=O)O)ccc12 (centres undefined),199
23,CCC1CC2C3CCC4=CC(=O)CCC4=C3C=CC2(C)C1OC(C)=O (centres undefined),95 to 98
24,CC1=C(C(=O)OC(C)C)C(c2cccc(Cl)c2Cl)N(C(=O)OC(C)C)C(=O)N1 (centres undefined),158 to 160
25,CC1(c2ccccc2)SC(=S)N(Nc2ccccc2)C1=NOC(=O)Nc1ccc(Cl)c(Cl)c1 (centres undefined),95 to 96
26,COc1c(C)cnc(CS(=O)c2nc3cc(C(F)(F)F)ccc3[nH]2)c1C (centres undefined),163

row,Compound,melting point [°C]
1,CNc1cccc(-c2ccnc3c(C(=O)c4cccs4)cnn23)c1,188 to 190
2,CCc1c(CC(C)(C)C(=O)O)ccc2c1OCO2,73 to 74
3,CCCCOc1ccc(S(=O)(=O)C2(C(=O)NO)CCN(CC)CC2)cc1,98
4,O=Cc1cccc(-c2ccoc2)n1,59 to 61
5,N=C(N)Nc1nnc(-c2ccc([N+](=O)[O-])cc2)s1,295 to 297
6,CN1CCn2nc(Nc3cc(Cl)nn(C)c3=O)cc2C1,175 to 176
7,O=C(Nc1nc(C(F)(F)F)c(I)s1)c1cccs1,184 to 185
8,COC(=O)c1cc(OCc2ccccc2)ccc1O,108 to 112
9,CC(=O)Nc1ccc(O)c(C(=O)CCC(=O)O)c1,205 to 206
10,COC(=O)CC(=O)c1cc(OC)c2c(c1)OCO2,65.5 to 66.5
11,Brc1ccc2[nH]c3cnc(-c4ccon4)cc3c2c1,292 to 293
12,c1cc(OCCCc2nnn[nH]2)cc(OCc2ccc3ccccc3n2)c1,147 to 149
13,O=C(Nc1ccc(OCCN2CCOCC2)c2ccccc12)c1cccc(Br)c1,90 to 93
14,CCNC(=O)c1cccc(F)c1[Si](C)(C)C,80 to 82
15,Cc1c(S(N)(=O)=O)c(-c2nnc(S)o2)nn1C,243 to 245
16,c1cnc2cc[nH]c2c1,126 to 128
17,COc1cc(C2CCNCC2)ccc1Nc1ncc2ccc(N3CC(c4ccccc4)CC3=O)n2n1 (centres undefined),178 to 183
18,CCCCCS(=O)(=O)NC(=O)/C=C/c1ccc(OCCOC)cc1Oc1ncc(-c2ccccc2)cc1C,133 to 134
19,CNC(=O)Nc1cc(-c2c(-c3ccc(F)c(C)c3)nc3cccnn23)ccn1,225 to 227
20,C[C@]1(CN2CCN(C(=O)NC3CCCCC3)CC2)Cn2cc([N+](=O)[O-])nc2O1,98 to 101
21,CC1(C)CCOc2cc(C(=O)Nc3ccc(C(=O)O)cc3)ccc21,279 to 281
22,Cc1cc(Nc2ccccn2)c(S(C)(=O)=O)cc1C(=O)N=C(N)N,225 to 226
23,Cc1cc(N(C)C(N)=O)no1,146 to 147
24,CC(C)(Nc1ccc(Cl)cc1[N+](=O)[O-])C(=O)O,162 to 164
25,O=[N+]([O-])c1cccc(Cn2ccnc2)c1,97 to 98
26,Cc1cc(C)c2c(n1)Nc1cc(C)c(C)cc1NC2=O,264 to 268

row,Compound,melting point [°C]
1,NC(=O)Cc1ccc2c(c1)CCc1cccnc1O2,164 to 165
2,CCOC(=O)C=CC(=S)c1ccc(-c2ccccc2)cc1,74 to 75
3,C=CC(=O)NC(=O)NCCCl,156 to 158
4,CCCc1c(C(C)C)nc(C(C)C)c(C(C)O)c1-c1ccc(F)cc1O (centres undefined),152 to 153
5,CCC(C)(C)c1cc(-c2ccc(F)c(C=C3SC(N4CCOCC4)=NC3=O)c2)ccc1O,246 to 247
6,O=c1[nH]c2c(Cl)cccc2c(=O)n1CCCN1CC=C(c2cccc(C(F)(F)F)c2)CC1,205 to 210
7,CCCCc1[nH]c2ccc([N+](=O)[O-])cc2c1C(=O)c1ccc(OCCCN(CCCC)CCCC)cc1,116
8,O=C(O)C(=O)Cc1ccsc1,203 to 204
9,COc1ccc2c(c1)C(=O)N(c1ccc3c(cnn3C)c1)C2,213 to 214
10,Nc1ccc(N2CCCC2)c(S(=O)(=O)O)c1,255 to 256
11,ON=C1C2CCC1CN(Cc1ccccc1)C2,92 to 95
12,Cc1ccc(C(O)c2ccc(N)cc2)nc1 (centres undefined),114 to 115
13,Cc1cc(-c2cccc(C(F)(F)F)c2)c2ncc(OCC(F)(F)F)nc2c1,114 to 117
14,CC(=O)OC1CSC(Oc2cccnc2Cl)C(OC(C)=O)C1OC(C)=O (centres undefined),160
15,CC(C)Cn1c(CON2C(=O)c3ccccc3C2=O)nc2c(N)nc3ccccc3c21,221 to 222
16,CCc1[nH]n(C2CCCC2)c2nc(-c3ccc4c(c3)CCO4)nc(=O)c1-2,253 to 254
17,C[C@]12CCC(=O)N[C@@H]1CCc1cc(Sc3cccc(Cl)c3)ccc12,186 to 187
18,NC(=O)N(O)CCOc1ccc2c(c1)CCN(Cc1ccc(-c3ccc(F)cc3)cc1)C2=O,171 to 172
19,CCCC(=O)C1=C(O)CC2(CCC(C)CC2)OC1=O (centres undefined),60 to 63
20,CCc1[nH]c(=O)[nH]c1C(=O)C(C)C,206 to 208
21,Cn1cccc1-c1ccc2c(c1)C(C)(C)OC(=O)N2,230
22,COC(=O)c1cncn1C1c2ccccc2C=CC1(C)C (centres undefined),60 to 61
23,Fc1ccc(Nc2nc(NC3CCOCC3)nc(OCC(F)(F)F)n2)cc1Cl,190 to 191
24,CCOC(=O)c1ncc2[nH]c3ccc(C4CCCCC4)cc3c2c1C,191 to 193
25,CCC(=S)N1CCC[C@H]1C(=O)O,123 to 124
26,COc1ccc(Nc2ccc(F)cc2)cc1,46 to 48

row,Compound,melting point [°C]
1,CCCNC(=S)NS(=O)(=O)c1cc2c(cc1OC)OCC(NC(=O)c1cc(Cl)ccc1OC)C2 (centres undefined),182
2,CC(C)(C)OC(=O)N[C@@H](CO)C(=O)N[C@@H](CCC(=O)OCc1ccccc1)C(=O)OCc1ccccc1,93 to 95
3,O=C1c2ccccc2S(=O)(=O)c2cc(C3=NCCN3)ccc21,241 to 242
4,CCCc1nc2c(N)nc3ccccc3c2n1CC1(O)CCOC1 (centres undefined),201 to 203
5,Cc1cc([N+](=O)[O-])cc(C)c1NS(=O)(=O)CCSCCN,159
6,Cc1nnnn1-c1ccc(/C(=C\C2CCCC2)C(=O)O)cc1Cl,216 to 219
7,CC(C)NC(=O)c1ccc(N2CCC(N3C(=O)OCc4ccccc43)CC2)c(S(C)(=O)=O)c1,240 to 242
8,CC(=N)NS(=O)(=O)c1cc(I)cc(C#N)c1,177 to 178
9,CCOC(=O)C(O)c1oc(-n2ccnc2C)nc1-c1ccc(Cl)cc1 (centres undefined),197 to 198
10,CCCn1nc2c(N)nc3ccccc3c2c1CCNS(C)(=O)=O,187 to 188
11,O=C(O)c1ccc(C#CC=Cc2ccccc2-c2ccc(Cl)cc2)cc1,135
12,COc1cc2c(cc1Nc1ncc(Cl)c(Nc3ccccc3S(=O)(=O)N3CCCC3)n1)CCN(CC(=O)N(C)C)CC2,67 to 74
13,O=C(NCc1ccc(Cl)cc1)c1cc(Cl)c2cccnc2c1O,163 to 166
14,COC(=O)NNc1n[nH]c2cc(Cl)ccc12,223 to 224
15,COc1ccc(OC)c(C=C2NC(=O)NC2=O)c1,250 to 252
16,O=Cc1coc2ccc(OCc3ccccc3)cc2c1=O,163 to 166
17,Cn1c(CCN2CCN(c3ccc(Cl)cc3)CC2)nc2ccc3ccccc3c21,213 to 215
18,Cc1c(Br)c2ccccn2c1C(=O)c1ccc(N)c(C(=O)O)c1,230
19,CC1(O)c2ccccc2C(C)(O)c2ccccc21 (centres undefined),178 to 179
20,CC(C)c1cccc(C(C)C)c1NC(=O)CNC(c1ccccc1)c1ccccc1Cl (centres undefined),119 to 121
21,CCC(=O)C1=C(O)CC(c2c(C)cc(C)cc2C)CC1=O (centres undefined),86 to 88
22,CSC1NC(=O)N(c2cccc(C(F)(F)F)c2)C(=O)N1,225 to 228
23,Cn1c(-c2ccccc2)c(CCCl)sc1=S,116
24,O=C1C=C2C=CC=C2O1,81 to 83
25,CC1Oc2c(F)cc(CN3CC=C(c4ccc(Cl)cc4)CC3)cc2NC1=O (centres undefined),214 to 233
26,O=Cc1cccc(CSCCNC(=O)c2c(Cl)cccc2Cl)c1,63 to 65
